The values that follow come from patent US11285156B2, “Substituted piperazines as KRAS G12C inhibitors” (Amgen Inc., priority 2018, dated 2022).

The assay deals with GDP-bound KRAS protein (aa 1-169), containing both G12C and C118A amino acid substitutions (Homo sapiens (Human), UniProt P01116, C118A/G12C). Put plainly: Coupled nucleotide exchange assay (SOS-mediated nucleotide exchange, AlphaScreen). It counts as biochemical. Particulars: 5 min compound pre-incubation; for IC50: read-out: Coupled exchange IC50 (5 min; μM). (In general: Bead proximity is the source of the signal in Alpha formats.)
Sequence of GDP-bound KRAS protein (aa 1-169), containing both G12C and C118A amino acid substitutions (P01116 other isoform, or with tags, fused parts or gaps G12C/C118A): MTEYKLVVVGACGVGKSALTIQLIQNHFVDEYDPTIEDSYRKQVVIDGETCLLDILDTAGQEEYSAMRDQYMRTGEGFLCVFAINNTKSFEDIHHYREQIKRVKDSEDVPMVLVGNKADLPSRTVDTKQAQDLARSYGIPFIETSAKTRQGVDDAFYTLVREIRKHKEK

Procedure: Coupled Nucleotide Exchange Assay:
Following compound pre-incubation, purified SOS protein (aa 564-1049) and GTP (Roche 10106399001) were added to the assay wells and incubated for an additional 30 min (for 5 min compound pre-incubation) or 1 hour (for 2 hour compound pre-incubation). […] The assay plates were then read on a PerkinElmer EnVision Multilabel Reader, using AlphaScreen® technology, and data were analyzed using a 4-parameter logistic model to calculate IC50 values.

Broadly, the IC50 is the concentration that inhibits the measured activity by half. Turning to `C=CC(=O)N1C[C@H](C)N(c2nc(=O)n3c4nc(c(Cl)cc24)-c2ccccc2C/C=C\Cc2cccc(C(C)C)c2-3)C[C@H]1C` (single isomer, unassigned) [Example 146-1-2], the half-maximal inhibitory concentration (IC50) was found to be 53.8 µM.
The same measure, in the same setting: the same measure for `C=CC(=O)N1C[C@H](C)N(c2nc(=O)n3c4nc(c(Cl)cc24)-c2ccccc2C/C=C/Cc2ccccc2-3)C[C@H]1C` (single isomer, unassigned) [Example 146-3-1]: 204 µM.
The same measure, in the same setting: the result for `C=CC(=O)N1C[C@H](C)N(c2nc(=O)n3c4nc(c(Cl)cc24)-c2ccccc2C/C=C\Cc2ccccc2-3)C[C@H]1C` (single isomer, unassigned) [Example 146-3-3] reads 57.3 µM.
Regarding `C=CC(=O)N1C[C@H](C)N(c2nc(=O)n(-c3c(C)cc(C4CC4)nc3C(C)C)c3nc(-c4ccccc4F)c(Cl)cc23)C[C@H]1C` (single isomer, unassigned) [Example 164-1], the “Coupled exchange IC50 (5 min; μM)” value came out at 0.066 µM.
On to `C=CC(=O)N1C[C@H](C)N(c2nc(=O)n(-c3c(C)cc(C4CC4)nc3C(C)C)c3nc(-c4ccccc4F)c(Cl)cc23)C[C@H]1C` (single isomer, unassigned) [Example 164-2], for which the “Coupled exchange IC50 (5 min; μM)” value was determined as 3.44 µM.
As for `C=CC(=O)N1C[C@H](C)N(c2nc(=O)n(-c3c(C)cc(CC)nc3C(C)C)c3nc(-c4ccccc4F)c(Cl)cc23)C[C@H]1C` (single isomer, unassigned) [Example 166-2], the “Coupled exchange IC50 (5 min; μM)” value amounted to 1.032 µM.
In the case of `C=CC(=O)N1C[C@H](C)N(c2nc(=O)n(-c3c(C(C)C)cc(N4CCC4)nc3C(C)C)c3nc(-c4ccccc4F)c(Cl)cc23)C[C@H]1C` (single isomer, unassigned) [Example 182-1], the “Coupled exchange IC50 (5 min; μM)” value is 0.14 µM.
Still for that read-out and setting: the result for `C=CC(=O)N1C[C@H](C)N(c2nc(=O)n(-c3c(C(C)C)cc(N4CCC4)nc3C(C)C)c3nc(-c4ccccc4F)c(Cl)cc23)C[C@H]1C` (single isomer, unassigned) [Example 182-2] reads 0.187 µM; that for `C=CC(=O)N1CCN(c2nc(=O)n(-c3c(C)cc(N)nc3C(C)C)c3nc(-c4ccccc4F)c(Cl)cc23)[C@@H](C)C1` (single isomer, unassigned) [Example 183-1], 0.61 µM; that for `C=CC(=O)N1C[C@H](C)N(c2nc(=O)n(-c3c(N)ncnc3C(C)C)c3nc(-c4ccccc4F)c(Cl)cc23)C[C@H]1C` (single isomer, unassigned) [Example 189-2], 14.7 µM.
On the same count and under the same terms, the result for `C=CC(=O)N1C[C@H](C)N(c2nc(=O)n(-c3c(C)nc(Cl)nc3C(C)C)c3nc(-c4ccccc4F)c(Cl)cc23)C[C@H]1C` (single isomer, unassigned) [Example 191-1] reads 2.99 µM; that for `C=CC(=O)N1C[C@H](C)N(c2nc(=O)n(-c3c(C)ncnc3C(C)C)c3nc(-c4ccccc4F)c(Cl)cc23)C[C@H]1C` (single isomer, unassigned) [Example 194-2], 1.45 µM.
Turning to `C=CC(=O)N1C[C@H](C)N(c2nc(=O)n(-c3c(C)nc(Br)nc3C(C)C)c3nc(-c4ccccc4F)c(Cl)cc23)C[C@H]1C` (single isomer, unassigned) [Example 197-1], the “Coupled exchange IC50 (5 min; μM)” value turned out to be 1.59 µM.
With `C=CC(=O)N1C[C@H](C)N(c2nc(=O)n(-c3c(C(C)C)cccc3S(C)(=O)=O)c3nc(-c4ccccc4F)c(Cl)cc23)C[C@H]1C` (single isomer, unassigned) [Example 208-1], the half-maximal inhibitory concentration (IC50) turned out to be 2.56 µM.
Regarding `C=CC(=O)N1C[C@H](C)N(c2nc(=O)n(-c3c(C(C)C)cccc3[S+](C)[O-])c3nc(-c4ccccc4F)c(Cl)cc23)C[C@H]1C` (single isomer, unassigned) [Example 209-2], the “Coupled exchange IC50 (5 min; μM)” value was 1.34 µM.
For `C=CC(=O)N1C[C@H](C)N(c2nc(=O)n(-c3c(C)cc([S+](C)[O-])cc3C(C)C)c3nc(-c4ccccc4C)c(Cl)cc23)C[C@H]1C` (single isomer, unassigned) [Example 213-1], the “Coupled exchange IC50 (5 min; μM)” value was 1.5 µM.
With `C=CC(=O)N1C[C@H](C)N(c2nc(=O)n(-c3c(C)cc([S+](C)[O-])cc3C(C)C)c3nc(-c4ccccc4C)c(Cl)cc23)C[C@H]1C` (single isomer, unassigned) [Example 213-4], the “Coupled exchange IC50 (5 min; μM)” value was determined as 1.51 µM.
For the molecule `C=CC(=O)N1C[C@H](C)N(c2nc(=O)n(-c3c(C)cc(S(C)(=O)=O)cc3C(C)C)c3nc(-c4ccccc4F)c(Cl)cc23)C[C@H]1C` (single isomer, unassigned) [Example 215-1], the “Coupled exchange IC50 (5 min; μM)” value worked out at 3.79 µM.
On to `C=CC(=O)N1[C@H](C)CN(c2nc(=O)n(-c3c(C)ccnc3C(C)C)c3nc(-c4ccccc4F)c(Cl)nc23)C[C@@H]1C` (single isomer, unassigned) [Example 224-1], for which the IC50 is 23.3 µM.
Take `C=CC(=O)N1[C@H](C)CN(c2nc(=O)n(-c3c(C)ccnc3C(C)C)c3nc(-c4ccccc4F)c(Cl)nc23)C[C@@H]1C` (single isomer, unassigned) [Example 224-2]: the concentration for half-maximal inhibition (IC50) is 1.29 µM.
Still for that read-out and setting: the same measure for `C=CC(=O)N1C[C@H](C)N(c2nc(=O)n(-c3c(C)ccnc3C(C)C)c3nc(-c4ccccc4F)c(C)nc23)C[C@H]1C` (single isomer, unassigned) [Example 225-1]: 7.62 µM.
In the case of `C=CC(=O)N1C[C@H](C)N(c2nc(=O)n(-c3c(C)ccnc3C(C)C)c3nc(-c4ccccc4F)c(C)nc23)C[C@H]1C` (single isomer, unassigned) [Example 225-2], the IC50 worked out at 0.501 µM.
The same measure, in the same setting: the result for `C=CC(=O)N1C[C@H](C)N(c2nc(=O)n(-c3c(C)ccnc3C(C)C)c3nc(-c4ccccc4F)c(C)nc23)C[C@H]1C` (single isomer, unassigned) [Example 225] reads 4.43 µM.
For the molecule `C=CC(=O)N1C[C@H](C)N(c2nc(=O)n(-c3c(C)ccnc3C(C)C)c3nc(-c4ncccc4OC)c(Cl)cc23)C[C@H]1C` [96-2], the IC50 came out at 1.22 µM.
On to `C=CC(=O)N1C[C@H](C)N(c2nc(=O)n(C3CCCCC3)c3nc(-c4ccccc4F)c(Cl)cc23)C[C@H]1C` [110-2, 6-Chloro-1-cyclohexyl-4-[(2S,5R)-2,5-dimethyl-4-prop-2-enoyl-piperazin-1-yl]-7-(2-fluorophenyl)pyrido [2,3-d]pyrimidin-2-one], for which the “Coupled exchange IC50 (5 min; μM)” value was 13.4 µM.
For `C=CC(=O)N1C[C@H](C)N(c2nc(=O)n(-c3c(N(C)C)ccnc3C(C)C)c3nc(-c4ccccc4S(C)(=O)=O)c(Cl)cc23)C[C@H]1C` [Example 55-53, 6-Chloro-1-[4-(dimethylamino)-2-isopropyl-3-pyridyl]-4-[(2S,5R)-2,5-dimethyl-4-prop-2-enoyl-piperazin-1-yl]-7-(2-methylsulfonylphenyl)pyrido[2,3-d]pyrimidin-2-one], the IC50 was found to be 0.356 µM.
Still for that read-out and setting: the same measure for `C=CC(=O)N1C[C@H](C)N(c2nc(=O)n(-c3ccccc3P(C)(C)=O)c3nc(-c4ccccc4F)c(Cl)cc23)C[C@H]1C` [Example 55-55, 6-Chloro-1-(2-dimethylphosphorylphenyl)-4-[(2S,5R)-2,5-dimethyl-4-prop-2-enoyl-piperazin-1-yl]-7-(2-fluorophenyl)pyrido[2,3-d]pyrimidin-2-one]: 3.14 µM.
